Reference: patent US20140255341A1, “Tumor Selective Chemokine Modulation” (priority 2011, published 2014)

Key:
[1] = test system: liver-metastatic colorectal cancer tissues versus marginal liver tissues; assay: Chemokine production in matched liver-metastatic tumor and marginal liver tissues (ELISA, Taqman); type: cell-based, human; details: tumor tissues, NF-κB inhibitor at 20 μM
Experimental: (§1) FIG. 9. Selective induction of CXCL10 and CCL5 in liver metastases compared to normal liver tissues: role of NF-κB. Matched samples of marginal liver tissues and liver-metastatic colorectal cancer tissues (3 biopsies in 1 ml in 24 well plate), were cultured for 24 hrs either untreated or treated with IFNα+poly-I:C+indomethacin and (A) analyzed for CCL5 and CXCL10 expression by Taqman. […] The supernatants were analyzed for CCL5 production by ELISA (see matched CXCL10 data in FIG. 4). (C) CAY10470 (20 μM) effects on liver glycogen phosphorylase mRNA expression in matched marginal liver tissue and liver-metastatic colorectal cancer.
Using matched tissue samples from 10 patients with metastatic colon cancer, we compared the responsiveness to the chemokine-modulating regimen between liver-metastatic tumor tissues and marginal tissues. […] This increased responsiveness of tumors compared to marginal tissues was not due to decreased survival of the marginal tissues, as determined by undisturbed expression levels of glycogen phosphorylase (FIG. 9C).

[2] = test system: marginal liver tissue and liver-metastatic colorectal cancer; assay: Glycogen phosphorylase mRNA expression as check of tissue survival; type: cell-based, human; details: at 20 μM
Experimental: as §1
CAY10470, used in these experiments (at 20 μM), was non-toxic, as shown by similar expression of glycogen phosphorylase mRNA in untreated and treated tissues (FIG. 9C).

[3] = test system: macrophages; assay: Chemokine production by in vitro generated macrophages, ELISA of 48 hr. cultures; type: cell-based
Experimental: FIG. 5. […] Data from one representative experiment of three. […] The concentrations of chemokines in 48 hr. cultures were analyzed by ELISA. […] In order to test the possibility of correcting the chemokine environment in the tumors with low ratios of Teff- to Treg-attracting chemokines, we tested in pilot studies the feasibility of modulating their production using different combinations of IFNα, indomethacin (COX1/2 inhibitor) and poly-I:C in individual populations of tumor-relevant cells (known to infiltrate tumors), such as macrophages, or fibroblasts.

[4] = test system: colorectal cancer tumor tissues; assay: Ex vivo tumor/tissue explant culture, chemokine ELISA; type: cell-based, human; details: for CCL5 expression / production / CXCL10 expression / production: tumor tissues ex vivo, 48 hours, ELISA
Experimental: FIG. 6. […] (A) Fresh tumor samples from 11 patients with metastatic colorectal cancer were untreated or treated with IFNα and poly-I:C either individually or in combination for 48 hours. The release of CCL5 and CXCL10 into culture media was analyzed by ELISA. Numbers indicate the prevalence of tumors with each chemokine pattern (respective patterns A, B or C). (B) ELISA analysis of CCL5, CCL22 and CXCL10 in tumors untreated or treated with IFNα+pI:C, with or without indomethacin. (C) Heterogeneous response of different tumor lesions from the same patient (CCL5 and CXCL10 production) to the individual components of the chemokine-modulating cocktail. (D) Indomethacin and celecoxib enhance the IFNα/poly-I:C-induced Teff-attracting chemokine expression, but suppress Treg-attracting chemokine expression in colorectal cancer lesions. All cultures were for 48 hr. Combined data from the tumors of 3 different patients (n=3).
FIG. 7. […] (A) In-situ hybridization for respective chemokine mRNA (black grains) in tumor biopsies which were either left untreated or treated with the combination of indomethacin, IFNa and poly-I:C (IAP). (B) ELISA analysis of the chemokine contents in the supernatants of 48 hour-cultured tumor tissues (untreated or treated) from 10 different patients.
In order to test the feasibility of using these factors to manipulate the complex microenvironment of whole tumor tissues, involving all the above cell types and their interactions, we used an ex vivo tumor/tissue explant culture system previously developed to study migration of DCs. This system allowed us to avoid nonspecific activation of the chemokine-producing cells during tumor dissociation.

[5] = test system: melanoma tissue; details: melanoma tissue ex vivo, increasing concentrations of melphalan
Experimental: FIG. 13. […] Tumor biopsies were cultured ex vivo in the presence of increasing concentrations of melphalan in the absence or presence of the triple combination (CAP) of the Celecoxib, IFNα and poly-I:C. Secretion levels of CC22 and CXCL10 were measured by ELISAs.

[6] = test system: fibroblasts; assay: Chemokine production by fibroblasts, ELISA of 48 hr. cultures; type: cell-based
Text: FIG. 5. Interplay between COX inhibitor indomethacin, IFNα and poly-I:C in the induction of a desirable patterns of chemokine expression in isolated cell cultures. (A) Dose-dependent impact of IFNa and poly-I:C on the production of Teff-, and Treg-attracting chemokines by in vitro generated macrophages (see M&M) and in fibroblasts (obtained from Cascade Biological). Data from one representative experiment of three. (B) Effects of indomethacin on Teff-, and Treg-attracting chemokines produced by macrophages (N=3) by ELISA analysis. The concentrations of chemokines in 48 hr. cultures were analyzed by ELISA.
In order to test the possibility of correcting the chemokine environment in the tumors with low ratios of Teff- to Treg-attracting chemokines, we tested in pilot studies the feasibility of modulating their production using different combinations of IFNα, indomethacin (COX1/2 inhibitor) and poly-I:C in individual populations of tumor-relevant cells (known to infiltrate tumors), such as macrophages, or fibroblasts.

[7] = whole tumor tissues, COX inhibitor added to IFNα and poly-I:C

## Nc1ccc2ncnc(NCCc3ccc(Oc4ccccc4)cc3)c2c1 [CAY10470]
[1]
  CCL5 up-regulation by the chemokine-modulating regimen: blocked
  CXCL10 induction by IFNα/poly-I:C/indomethacin: completely abrogated
[2]
  toxicity (expression of glycogen phosphorylase mRNA in untreated and treated tissues): non-toxic

## COc1ccc2c(c1)c(CC(=O)O)c(C)n2C(=O)c1ccc(Cl)cc1 [indomethacin]
[3]
  production of CCL22: suppression of CCL22 production
[3]; indomethacin added
  effects of IFNα and poly-I:C on Teff- and Treg-attracting chemokines (CCL5, CXCL10 induction, CCL22 suppression): further potentiated
[4]; colorectal cancer lesions, 48 hr, tumors of 3 patients
  IFNα/poly-I:C-induced Teff-attracting chemokine expression: enhance
[4]; colorectal cancer lesions, with IFNα/poly-I:C, 48 hr, tumors of 3 patients
  Treg-attracting chemokine expression: suppress
[4]; [7]
  CCL22 levels: reduced
  production of CCL5 induced by the combination IFNα and poly-I:C: further enhanced
  production of CXCL10 induced by the combination IFNα and poly-I:C: further enhanced

## N[C@@H](Cc1ccc(N(CCCl)CCCl)cc1)C(=O)O [melphalan]
[5]
  ratio between Treg-attracting and Teff-attracting chemokines (CCL22/CXCL10): undesirable elevation

## IFNα
[3]
  production of CCL22: strong suppressive effect
[4]
  CCL5 expression / production: variable chemokine expression
  CXCL10 expression / production: variable chemokine expression
[6]
  production of CCL22: strong suppressive effect

## polyinosinic-polycytidylic acid [poly-I:C]
[4]
  CCL5 expression / production: variable chemokine expression
  CXCL10 expression / production: variable chemokine expression
